One test deals with cIAP2-BIR3 Protein (Homo sapiens (Human), UniProt Q13489). The test is described as follows: Fluorescence polarization affinity of compounds to cIAP2-BIR3. The format is binding. Conditions: cIAP2-BIR3 60 nM; 5 nM ARPFAQ-K(5-FAM)-NH2 probe; FP; pH 7.5; read-out: affinity to target protein in vitro, cIAP2-BIR3 Protein (IC50). How it is done:
(§1) Biological Assay 1: affinity of compounds to cIAP1-BIR3, cIAP2-BIR3, XIAP-BIR3 • 1) Affinity of compounds listed in table to cIAP1-BIR3, Ciap2-BIR3, XIAP-BIR3 was tested referring to Nikolovska-Colesks, Z. et.Al. (Analytical Biochemistry,2004,232:261-273) to obtain IC50 value. Generally speaking, in 10-dose IC50 mode, IAP antagonists with different concentrations were diluted in series by 3-fold and fluorescence labelled ARPFAQ-K (5-FAM)-NH2 peptide was used as probe to test compounds binding to protein BIR3 domain. • 2) Test condition: cIAP1-BIR3: 20 nM; cIAP2-BIR3: 60 nM; XIAP-BIR3: 30 nM; 5 nM probe in 100 mM tripotassium phosphate, pH 7.5, 0.1 mg/mL BSA, 0.005% Triton X100 and 0.5% DMSO. • 3) Test procedure: compounds were added into protein with different concentrations by using ECHO (LabCyte), and then the mixture was preincubated for 15 min. The probe was added and the final concentration was 5 nM. After incubating for 60 min, FP was tested and mP was calculated. Experiment results were list in table 1.

Another test has as its target cIAP1-BIR3 Protein (Homo sapiens (Human), UniProt Q13490). The test is described as follows: Fluorescence polarization affinity of compounds to cIAP1-BIR3. The format is binding. Conditions: cIAP1-BIR3 20 nM; 5 nM ARPFAQ-K(5-FAM)-NH2 probe; FP; pH 7.5; read-out: affinity to target protein in vitro, cIAP1-BIR3 Protein (IC50). How it is done: as §1
Another test concerns the target XIAP-BIR3 Protein (Homo sapiens (Human), UniProt P98170). The test is described as follows: Fluorescence polarization affinity of compounds to XIAP-BIR3. It counts as binding. Particulars: XIAP-BIR3 30 nM; 5 nM ARPFAQ-K(5-FAM)-NH2 probe; FP; pH 7.5; read-out: affinity to target protein in vitro, XIAP-BIR3 Protein (IC50). How it is done:
as §1

Test [1] relates to NF-κB Luciferase Reporter Hela cells. The test is described as follows: TNF-α inducing NF-κB reporter. It counts as cell-based. Particulars: Homo sapiens, 6 h, Table 3, 20 ng/mL TNF-α, Bright-Glo luciferase, values given as ranges. How it is done: Biological Assay 2: TNF-α inducing NF-κB reporter
• 1) tested compounds were added into DMSO to give parent liquor (10 mM); • 2) reference compound Birinapant (32 μL, 10 mM) was added into DMSO (128 μL) to give a solution (2 mM); • 3) 0.5 μL reference compound Birinapant (2 mM) and tested compounds (10 mM) were taken by Echo and added into Greiner 96 well black cell culture plate respectively. The initial concentration of the reference compound and tested compound was 10 μM and 50 μM, respectively. Then, the reference compound and tested compounds were diluted at 9 points in series by 5-fold; and every plate was repeated for 3 times. • 4) the reference compound WXFL2012A001 (Birinapant) (final concentration: 10 μM) as HPE and DMSO (final concentration: 0.5%) as ZPE.
• 5) purpose of the three repeated plates: the first plate was used for testing compounds' activity;
the second plate was used for testing cytotoxicity of the compounds; the third plate was used for solution replacement of the first and second plates: mixing inducer TNF-α and medium containing 0.1% FBS, and then being added to the third plate and the resultant mixture was transferred to the first plate where supernatants had been removed.
• 1) removing medium in NF-iBLuciferase Reporter Hela cell culture flask and washing cell once with PBS (10 mL) • 2) adding 0.25% pancreatin (3 mL) to T150 cell culture flask, and placinginto cell incubator (37° C., 5%CO2) and dissociating cell for 3 min, and then medium (10 mL) was added to end dissociation and blowing cells with electric pipette until cells were dispersed into single cell. • 3) Calculating cell density with cell counter Countstar • 4) Adjusting NF-κB Luciferase Reporter Hela density with medium to 2.0×10^5 cells/mL • 5) Adding cells to two Greiner 96 well black cell culture plates containing compounds, (100 μL per well (2.0×10^4 cells/well)), one plate was used for testing compounds' activity, another was used for testing cytotoxicity of the compounds. • 6) Placing cell culture plates into cell incubator (37° C., 5%CO2) and incubatingfor 24 h Second Day TNF-α Inducing • 1) TNF-α (100 μg/mL) was diluted into 20 ng/mL with 0.1% FBS medium and transferredto the third plate with 100 μL per well • 2) Removing medium of the first 96 well black cell culture plate (compound activity testing plate) after 24 h, replacing with fresh medium containing the compound and 20 ng/mL TNF-α in the third plate • 3) Placing cell culture plate into cell incubator (37° C., 5% CO2) and incubatingfor 6 h • 4) after 6 h, compound's activity in the first plate was tested according to Bright-Glo (Promega) manual method, luciferase signal in each well was tested by Envision plate reader • 5) compound's cytotoxicity in the second plate was tested according to ATPlite 1Step (Perkin Elmer) manual method, luciferase signal in each well was tested by Envision plate reader • 6) analyzing with software to obtain EC50 of compound.

Chain of cIAP1-BIR3 Protein (Q13490 253-363): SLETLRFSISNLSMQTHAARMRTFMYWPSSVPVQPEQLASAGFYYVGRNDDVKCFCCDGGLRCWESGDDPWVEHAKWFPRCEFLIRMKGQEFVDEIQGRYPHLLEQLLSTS
Chain of cIAP2-BIR3 Protein (Q13489 238-349): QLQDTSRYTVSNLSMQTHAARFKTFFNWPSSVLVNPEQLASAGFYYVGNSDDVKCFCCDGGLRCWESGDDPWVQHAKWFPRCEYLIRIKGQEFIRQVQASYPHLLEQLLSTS
Chain of XIAP-BIR3 Protein (P98170 241-356): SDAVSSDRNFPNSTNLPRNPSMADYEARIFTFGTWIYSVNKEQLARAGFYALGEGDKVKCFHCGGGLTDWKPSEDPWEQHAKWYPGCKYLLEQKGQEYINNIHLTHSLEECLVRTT

`CN[C@@H](C)C(=O)N[C@H](C(=O)N1C[C@@H](F)C[C@H]1Cc1c(-c2nc3cc(F)ccc3n2C[C@@H]2C[C@H](F)CN2C(=O)[C@@H](NC(=O)[C@H](C)NC)C(C)(C)C)[nH]c2cc(F)ccc12)C1CC1` [Embodiment 29]: the figures for the IC50 at cIAP2-BIR3 Protein, on cIAP1-BIR3 Protein and at XIAP-BIR3 Protein were 10 to 100 nM, < 10 nM and 10 to 100 nM, respectively. In addition, the EC50 in test [1] was < 10 nM.
Consider `CN[C@@H](C)C(=O)N[C@H](C(=O)N1C[C@@H](F)C[C@H]1Cc1c(-c2nc3cc(F)ccc3n2C[C@@H]2C[C@H](F)CN2C(=O)[C@@H](NC(=O)[C@H](C)NC)C2CCCCC2)[nH]c2cc(F)ccc12)C1CC1` [Embodiment 30], for which the IC50 at cIAP2-BIR3 Protein was 10 to 100 nM; on cIAP1-BIR3 Protein it was < 10 nM; on XIAP-BIR3 Protein it was 10 to 100 nM. Moreover, in test [1], the EC50 is < 10 nM.
As for `CC[C@H](NC(=O)[C@H](C)NC)C(=O)N1C[C@@H](F)C[C@H]1Cc1c(-c2nc3cc(F)ccc3n2C[C@@H]2C[C@H](F)CN2C(=O)[C@@H](NC(=O)[C@H](C)NC)C2CC2)[nH]c2cc(F)ccc12` [Embodiment 31], the IC50 at cIAP2-BIR3 Protein is 10 to 100 nM; at cIAP1-BIR3 Protein, < 10 nM; on XIAP-BIR3 Protein, 10 to 100 nM. The same molecule gave an EC50 in test [1] of 10 to 100 nM.
For `CCC[C@H](NC(=O)[C@H](C)NC)C(=O)N1C[C@@H](F)C[C@H]1Cc1c(-c2nc3cc(F)ccc3n2C[C@@H]2C[C@H](F)CN2C(=O)[C@@H](NC(=O)[C@H](C)NC)C(C)C)[nH]c2cc(F)ccc12` [Embodiment 32], the IC50 at cIAP2-BIR3 Protein is 10 to 100 nM; at cIAP1-BIR3 Protein it was < 10 nM; at XIAP-BIR3 Protein, 10 to 100 nM. Moreover, in test [1], the EC50 is < 10 nM.
For the molecule `CCC[C@H](NC(=O)[C@H](C)NC)C(=O)N1C[C@@H](F)C[C@H]1Cn1c(-c2[nH]c3cc(F)ccc3c2C[C@@H]2C[C@H](F)CN2C(=O)[C@@H](NC(=O)[C@H](C)NC)C2CCCCC2)nc2cc(F)ccc21` [Embodiment 36], the IC50 was 10 to 100 nM at cIAP2-BIR3 Protein, < 10 nM at cIAP1-BIR3 Protein and 10 to 100 nM on XIAP-BIR3 Protein. The EC50 in test [1] was < 10 nM.
Take `CC[C@H](NC(=O)[C@H](C)NC)C(=O)N1CCC[C@H]1Cc1c(-c2nc3cc(F)ccc3n2C[C@@H]2C[C@H](F)CN2C(=O)[C@@H](NC(=O)[C@H](C)NC)C(C)(C)C)[nH]c2cc(F)ccc12` [Embodiment 38]: the IC50 was 10 to 100 nM at cIAP2-BIR3 Protein, < 10 nM on cIAP1-BIR3 Protein and < 10 nM on XIAP-BIR3 Protein. Moreover, the EC50 in test [1] was < 10 nM.
For the molecule `CC[C@H](NC(=O)[C@H](C)NC)C(=O)N1C[C@@H](F)C[C@H]1Cc1c(-c2nc3cc(F)ccc3n2C[C@@H]2CCCN2C(=O)[C@@H](NC(=O)[C@H](C)NC)C(C)C)[nH]c2cc(F)ccc12` [Embodiment 39], the IC50 at cIAP2-BIR3 Protein is 10 to 100 nM; at cIAP1-BIR3 Protein, < 10 nM; on XIAP-BIR3 Protein, < 10 nM. The EC50 in test [1] lay in the range of 10 to 100 nM.
In the case of `CC[C@H](NC(=O)[C@H](C)NC)C(=O)N1C[C@@H](F)C[C@H]1Cc1c(-c2nc3cc(F)ccc3n2C[C@@H]2CCCN2C(=O)[C@@H](NC(=O)[C@H](C)NC)C(C)(C)C)[nH]c2cc(F)ccc12` [Embodiment 40], the results for the IC50 at cIAP2-BIR3 Protein, at cIAP1-BIR3 Protein and on XIAP-BIR3 Protein were 10 to 100 nM, < 10 nM and 10 to 100 nM, respectively. In test [1], the EC50 was < 10 nM.
As to `CC[C@H](NC(=O)[C@H](C)NC)C(=O)N1CCC[C@H]1Cn1c(-c2[nH]c3cc(F)ccc3c2C[C@@H]2C[C@H](F)CN2C(=O)[C@@H](NC(=O)[C@H](C)NC)C(C)(C)C)nc2cc(F)ccc21` [Embodiment 42], the IC50 on cIAP2-BIR3 Protein is 10 to 100 nM; at cIAP1-BIR3 Protein it was < 10 nM; on XIAP-BIR3 Protein, < 10 nM. The molecule also registered an EC50 in test [1] of 10 to 100 nM.
As to `CC[C@H](NC(=O)[C@H](C)NC)C(=O)N1CC(F)(F)C[C@H]1Cc1c(-c2nc3cc(F)ccc3n2C[C@@H]2CC(F)(F)CN2C(=O)[C@H](CC)NC(=O)[C@H](C)NC)[nH]c2cc(F)ccc12` [Embodiment 43], the IC50 at cIAP2-BIR3 Protein, at cIAP1-BIR3 Protein and on XIAP-BIR3 Protein was 10 to 100 nM throughout. In test [1], the EC50 was > 100 nM.
In the case of `CN[C@@H](C)C(=O)N[C@H](C(=O)N1CC(F)(F)C[C@H]1Cc1c(-c2nc3cc(F)ccc3n2C[C@@H]2CC(F)(F)CN2C(=O)[C@@H](NC(=O)[C@H](C)NC)C2CC2)[nH]c2cc(F)ccc12)C1CC1` [Embodiment 44], the IC50 on cIAP2-BIR3 Protein was 10 to 100 nM; on cIAP1-BIR3 Protein, < 10 nM; at XIAP-BIR3 Protein, < 10 nM. Further, the EC50 in test [1] is > 100 nM.
For `CC[C@H](NC(=O)[C@H](C)NC)C(=O)N1CC(F)(F)C[C@H]1Cc1c(-c2nc3cc(F)ccc3n2C[C@@H]2CC(F)(F)CN2C(=O)[C@@H](NC(=O)[C@H](C)NC)C(C)C)[nH]c2cc(F)ccc12` [Embodiment 46], the IC50 on cIAP2-BIR3 Protein is 10 to 100 nM; at cIAP1-BIR3 Protein it was < 10 nM; at XIAP-BIR3 Protein, 10 to 100 nM. For the same molecule, the EC50 in test [1] was 10 to 100 nM.

(Values after patent publication US10508103B2, “Benzimidazole-linked indole compound acting as novel divalent IAP antagonist” (MEDSHINE DISCOVERY INC., priority 2016, dated 2019).)
